According to patent publication US20060270641A1, “Method for chemoprevention of prostate cancer” (priority 2005, published 2006):

Experiments:
[1] = system: prostate glands of TRAMP mice; assay: SERMs in prevention of prostate cancer in the TRAMP model (wholemount and histology at 20 weeks); format: in vivo, mouse; settings: sacrificed at 20 weeks; for Animals with prostate cancer / animals evaluated (column has no head): placebo 5/5; for Percent of animals with prostate cancer (column has no head): placebo 100%
Method: Experimental design: Chemopreventive treatment of mice is initiated post-natal at 30 days. Three groups of 50 hybrid TRAMP male mice each are treated with either Tamoxifen citrate, Raloxifene (SERMs), or Faslodex (pure antiestrogen ICI 182,780). The drugs are obtained as customized sustained-release pellets (Innovative Research of America, Sarasota, Fla.) and delivered as subcutaneous implants (see preliminary data). Control animals receive placebo implant with no pharmacological activity. Animals (n=10) are sacrificed at periodic intervals, 10, 15, 20, 25 and 30 weeks age, and the efficacy of the treatment leading to either absence of tumor formation or reduction in tumor size, if present, is assessed by comparison with placebo control animals. Blood is collected to evaluate changes in serum androgens and estrogens with each treatment Prostatic tissues is saved: a) for morphometric studies; b) for histologic studies (the tissue will be fixed in 10% buffered formalin, processed and paraffin embedded); c) for molecular studies (the tissues is frozen in liquid nitrogen and stored at −70° C.). Necropsies and survival data is also recorded.
The results of the experiment reveal the relative chemopreventive efficacy of the various antiestrogens in the delay or prevention of prostate cancer in the TRAMP model. The morphological studies indicate the gross changes, if any, in the development of the prostate size and ductal pattern as a result of each treatment. Paraffinized tissue sections are stained using standard H&E techniques for histological changes such as PIN that will be assessed to monitor the appearance of precancerous lesions as a precursor of prostatic adenocarcinoma. Serum estradiol and total testosterone levels are measured for each age interval to assess any changes in these hormones and whether or not they correlate to changes in PIN. The peptide growth factor levels of TGF, TGF 1, TGF 3, and bFGF are quantitative in prostate samples taken at each interval. Corresponding peptide growth factor receptors are also assessed for EGFR and TGF RI and RII.

[2] = system: ventral prostate of TRAMP mice; assay: Chemopreventive activity in TRAMP transgenic mice, absence of palpable tumor formation; format: in vivo, mouse; settings: for Week at which tumor formation in the ventral prostate was noted: n=12, placebo week 17; for Animals still tumor-free: all control animals had tumors
From the text: The study of prostate cancer chemoprevention has been hindered by the lack of appropriate animal models. The recent development of the transgenic adenocarcinoma mouse prostate (TRAMP) model enables the study of chemoprevention. In the TRAMP model, which is described in Greenberg et al., A Prostate cancer in a transgenic mouse, Proc. Natl Acad. Sci. USA, 1995, Vol. 92, pages 3439-3443, the PB-SV40 large T antigen (PB-Tag) transgene is expressed specifically in the epithelial cells of the murine prostate. As a result, this model has several advantages over currently existing models: 1) mice develop progressive forms of prostatic epithelial hyperplasia as early as 10 weeks and invasive adenocarcinoma around 18 weeks of age; 2) the metastatic spread of prostate cancer pattern mimics human prostate cancer with the common sites of metastases being lymph node, lung, kidney, adrenal gland, and bone; 3) the development as well as the progression of prostate cancer can be followed within a relatively short period of 10-30 weeks; 4) the tumors arise with prostate cancer transgene prior to the onset of clinical prostate cancer to directly test treatment with chemopreventive agents that may alter prostate carcinogenesis.
A study was undertaken to test the efficacy of chemopreventive agents in TRAMP transgenic animals (PBTag×FVBwt)(provided by Dr. Norman Greenberg, Baylor College of Medicine, Tex.). […] The TRAMP transgenic male litters were screened for the Large Tag transgene, and the positive males were used in the study. The antiestrogen toremifene, which was to be tested for its possible chemopreventive effects, was incorporated in customized pellets (Innovative Research of America, Sarasota, Fla.), and chemopreventive treatment of mice was initiated postnatally at 30 days (average mouse weight 14 g) Four groups of 10-12 animals each received subcutaneous implantations of 90 day-release toremifene-containing pellets. The diffusible drug dosage, adjusted for growth related changes in weight, was designed to deliver either a low dose (6 mg/kg) or a high dose (30 mg/kg) of toremifene. Control animals (n=IO) received placebo implants The efficacy of the treatment was measured by the absence of palpable tumor formation. The murine prostate tumors were harvested and evaluated by molecular and histological techniques

[3] = system: TRAMP mouse ventral prostate; assay: Histological examination (H&E) of TRAMP prostate tissue; format: in vivo
Method: Tumors from the placebo and high toremifene-treated groups taken at the time of palpation were evaluated histologically. FIG. 2A is an H&E section of the ventral prostate of a 17-week-old normal adult mouse.

prostate of TRAMP mice = assay: TRAMP confirmation study: wholemount, histology, large T antigen immunohistochemistry; format: in vivo, mouse
Method: The present study focuses on the histological and molecular changes associated with development of prostate tumor in control animals and the mechanism of toremifene chemopreventive action with TRAMP animals which are bred, screened and treated with sustained-release drug pellets. At predetermined times, groups of 5 animals were sacrificed and their prostates were removed for analysis. The prostate glands were evaluated for the presence of tumor by histology, wholemount dissections, and large T antigen immunohistochemistry. To date, the Placebo and the Toremifene treatments have been completed for the 7, 10, 15 and 20 week time-points, and the results are described below.
Results: Prostatic wholemounts for 7,10,15, and 20 weeks for the various groups have been completed. […] By 20 weeks, there is a striking delay in tumor occurrence in the Toremifene treated group up to 35 weeks FIG. 4). […] For histological evaluation, tissue samples were fixed, processed and paraffin embedded. Sections ([…]) were cut and stained by routine H&E method.

LNCaP tumors = assay: Regression of established LNCaP tumors in athymic nude mice; format: in vivo
Method: Materials and Methods: One million LNCaP cells in Matrigel were subcutaneously injected into each flank of athymic nude mice. A total of 40 mice were injected. After approximately 3-4 weeks, visible tumors developed. After the tumor size was recorded in two dimensions, the mice were divided into placebo and treatment groups based on equivalent tumor burden. A single pellet (placebo versus toremifene 35 mg) was subcutaneously implanted between the scapulae of each mouse. Weekly measurements of the tumor size were recorded. Tumor volume was calculated (tumor volume=[…], where L=tumor length and W=width). The tumor volume at the time of pellet implantation served as the point of reference for future comparison of that tumor's size variation. The weekly variations of each tumor volume were recorded as percent differentiation from the original measurement at pellet implantation.

[4] = system: human stromal fibroblast cells; assay: TGFβ synthesis in human stromal fibroblast cells; format: cell-based
PIN = settings: 60 mg daily for 4 months

O=C(c1ccc(OCCN2CCCCC2)cc1)c1c(-c2ccc(O)cc2)sc2cc(O)ccc12 [Raloxifene, 6-hydroxy-2-(4-hydroxyphenyl)-3-[4-(2-piperidinoethoxy)benzoyl]benzo[b]thiophene]
Animals with prostate cancer / animals evaluated (column has no head) ([1]; 20 mg/kg/d): 3/10 | Percent of animals with prostate cancer (column has no head) ([1]; 20 mg/kg/d): 30%

C[C@]12CC[C@@H]3c4ccc(O)cc4C[C@@H](CCCCCCCCC[S+]([O-])CCCC(F)(F)C(F)(F)F)[C@H]3[C@@H]1CC[C@@H]2O (some centres unmarked) [Faslodex]
Animals with prostate cancer / animals evaluated (column has no head) ([1]; 10 mg/kg/d): 8/11 | Percent of animals with prostate cancer (column has no head) ([1]; 10 mg/kg/d): 72%

CN(C)CCOc1ccc(/C(=C(/CCCl)c2ccccc2)c2ccccc2)cc1 [Toremifene]
Delay of time to palpable tumors in 25% of the animals ([2]; high and low toremifene groups vs placebo): 7-8 weeks | Time at which tumors were palpable in 25% of the animals ([2]; high and low toremifene groups, placebo week 23): 30-31 weeks | Week at which tumor formation in the ventral prostate was noted ([2]; high dose (30 mg/kg) 90 day-release sc pellet): 19 week | Week at which tumor formation in the ventral prostate was noted ([2]; low dose (6 mg/kg) 90 day-release sc pellet): 28 week | Increase of latency period for development of cancer in the ventral prostate ([2]; vs placebo): up to 11 weeks | Animals still tumor-free ([2]; week 33, high dose (30 mg/kg)): 60% | Animals still tumor-free ([2]; week 33, low dose (6 mg/kg)): 72% | Mitotic index relative to placebo-treated animal ([3]; toremifene-treated 30-week-old TRAMP mouse vs placebo-treated 16-week-old): much lower | Prostate histology (glandular architecture) ([3]; toremifene-treated 30-week-old TRAMP mouse, H&E, FIG. 2C): retains much of the normal glandular architecture | Delay in the occurrence of prostate cancer (wholemount analysis) (prostate of TRAMP mice; FIG. 3, placebo tumors by 15-20 weeks of age): up to 20 weeks | Delay in tumor occurrence (prostate of TRAMP mice; FIG. 4): up to 35 weeks | Effect on ductal development and tissue differentiation (histology) (prostate of TRAMP mice; H&E sections): inhibited the ductal development and tissue differentiation | Mean tumor volume after treatment (LNCaP tumors; toremifene 35 mg pellet, 1.90 mm^3 at pellet implantation, placebo increased to 2.33): 1.68 mm^3 | Mean serum PSA level (LNCaP tumors; toremifene 35 mg pellet, not statistically significant vs placebo (p=0.755)): 2.80 ng/mL | Change of mean tumor volume (LNCaP tumors; toremifene 35 mg pellet, vs volume at pellet implantation): −0.22 mm^3 | % Change in volume relative to day 0 of treatment (LNCaP tumors; week 3, toremifene 35 mg sc pellet, N=11): −34.58% | % Change in volume relative to day 0 of treatment (LNCaP tumors; week 4, toremifene 35 mg sc pellet, N=7): −61.01% | % Change in volume relative to day 0 of treatment (LNCaP tumors; week 5, toremifene 35 mg sc pellet, N=7): −74.51% | % Change in volume relative to day 0 of treatment (LNCaP tumors; week 6, toremifene 35 mg sc pellet, N=5): −61.72% | Animals with prostate cancer / animals evaluated (column has no head) ([1]; 20 mg/kg/d): 1/7 | Percent of animals with prostate cancer (column has no head) ([1]; 20 mg/kg/d): 14.2% | TGFβ synthesis [4]: significantly induce | Acute or chronic toxicities (PIN): no acute or chronic toxicities | Quality of life, including potency and libido (PIN): unchanged | Serum PSA, serum free testosterone, serum total testosterone and serum estradiol (PIN): remained in the normal ranges | Complete response (PIN; 16 patients completed): 75% | Patients who had prostate cancer but the amount of PIN was reduced (PIN; of 16 patients): 3 patients | Patients with stable disease (PIN epithelium with atrophic and degenerative changes) (PIN; of 16 patients): 1 patient | Patients with regression of PIN to benign or atrophic prostate tissue (PIN; rebiopsy (8 biopsies)): 12 out of 16

CC/C(=C(\c1ccccc1)c1ccc(OCCN(C)C)cc1)c1ccccc1 [Tamoxifen]
Animals with prostate cancer / animals evaluated (column has no head) ([1]; 20 mg/kg/d): 2/9 | Percent of animals with prostate cancer (column has no head) ([1]; 20 mg/kg/d): 22%
